Experiments:
[1] = cited from earlier work
fungus = assay: minimum inhibitory concentration (MIC) of amphotericin B; format: cell-based; conditions: midrange of the MIC range, 300′ of FIG. 25
Procedure: In one version, an aerosolizeable pharmaceutical composition comprising amphotericin B is administered to the lungs and/or nasal cavity of a patient in a manner that results in an amphotericin B concentration greater than a minimum inhibitory concentration (MIC) of the fungus. The MIC is defined as the lowest concentration of amphotericin B that inhibits fungal growth. The MIC may be expressed as a particular concentration value or as a range of concentrations. A method according to one or more embodiments of the present invention administers a sufficient amount of the pharmaceutical composition to achieve a target lung concentration of amphotericin B that falls within the range of MIC values or is above a particular MIC value. In another version, the target lung concentration of amphotericin B exceeds the MIC range. In another version, the target lung concentration of amphotericin B exceeds the lowest value in an MIC range. […] As used herein, unless otherwise specified, the MIC value shall be taken to be the particular value when a particular MIC value is determined and shall be taken to be a midrange value when a range of MIC values is determined. […]
The MIC value for amphotericin B in this version has been determined to range from about 0.5 μg/g to about 4 μg/g, as shown by block 300. […]

[2] = amphotericin B lung-residence half-life (bronchioalveolar lavage / lung tissue homogenization); format: in vivo; conditions: pulmonary administration

Compound | solubility in water [1] | midrange MIC value (fungus) | amphotericin B lung-residence half-life in lung epithelial fluid ([2]; lung epithelial fluid, measured by bronchioalveolar lavage) | amphotericin B lung-residence half-life in lung tissue ([2]; lung tissue, measured by lung tissue homogenization)
CCCCCCCCCCCCCCCC(=O)OC[C@H](COP(=O)([O-])OCC[N+](C)(C)C)OC(=O)CCCCCCCCCCCCCCC [DPPC, dipalmitoylphosphatidylcholine] | about 10^−10 mol/L |  |  | 
C[C@@H]1[C@H](O)[C@@H](C)/C=C/C=C/C=C/C=C/C=C/C=C/C=C/[C@H](O[C@@H]2O[C@H](C)[C@@H](O)[C@H](N)[C@@H]2O)C[C@@H]2O[C@](O)(C[C@@H](O)C[C@@H](O)[C@H](O)CC[C@@H](O)C[C@@H](O)CC(=O)O[C@H]1C)C[C@H](O)[C@H]2C(=O)O [amphotericin B] |  | about 2.25 μg/g | at least 10 hours | at least 1 week

Reference: patent US20090032427A1, “Receptacles and Kits, Such as for Dry Powder Packaging” (Nektar Therapeutics, priority 2005, published 2009)
